Measurements from US5635593A (priority 1995, dated 1997).
Square brackets hold non-standard residues; d marks the D form. Peptide text beside a SMILES is read from it. Oic = O=C(O)[C@@H]1C[C@@H]2CCCC[C@@H]2N1; Hyp = O=C(O)[C@@H]1C[C@@H](O)CN1; dTic = O=C(O)[C@H]1Cc2ccccc2CN1; 2Thi = N[C@@H](Cc1cccs1)C(=O)O

How the values were obtained:
[1] = biological target: T1, BK1 receptor (Oryctolagus cuniculus, UniProt P48748); assay: rabbit aorta in vitro, reversal of des-Arg^9 -BK contraction; design: on rabbit aorta (BK1 -receptor) in vitro; from tissue; host or cells: rabbit aorta; settings: negative log of molar concentration causing 50% reversal of des-Arg^9 -BK (10^-7 M) contraction
T1 sequence (P48748 1-352): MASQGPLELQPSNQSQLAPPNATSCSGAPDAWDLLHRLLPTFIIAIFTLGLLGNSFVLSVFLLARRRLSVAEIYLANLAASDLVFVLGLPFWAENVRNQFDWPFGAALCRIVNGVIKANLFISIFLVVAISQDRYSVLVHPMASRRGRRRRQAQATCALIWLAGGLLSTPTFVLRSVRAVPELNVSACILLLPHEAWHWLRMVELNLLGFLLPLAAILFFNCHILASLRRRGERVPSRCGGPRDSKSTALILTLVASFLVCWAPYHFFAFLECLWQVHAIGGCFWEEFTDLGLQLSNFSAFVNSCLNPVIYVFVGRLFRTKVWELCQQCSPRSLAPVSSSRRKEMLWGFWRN
Description: Each antagonist was then added, in a cumulative fashion, on top of the contraction and the negative log of the molar concentration of the antagonist causing a 50% reversal (IC50) of the […] measured.

[2] = biological target: T1, BK1 receptor; assay: blood pressure response to BK1 agonist in LPS-pretreated rabbits; format: in vivo, rabbit; design: from tissue; host or cells: whole animal (rabbit, LPS-pretreated), blood pressure response; key to observed antagonist activity BK1, 1 / observed antagonist activity BK1, 3 / observed antagonist activity BK1, 10: +: complete blockade of the blood pressure response to the appropriate agonist; ±: partial blockade; -: no observable effect at the dose indicated; settings: rabbits given LPS (10 μg) 20 hours before
From the text: (§1) That heterodimeric constructs block the activities attributable to two different receptor populations simultaneously when administered to an intact animal has been known using a standard assay of BK2 and BK1 receptor activity (see, deBlois, Bouthillier, and Marceau, Brit. J. Pharm., 103, 1057-1066, 1991). In normal rabbits, no changes in systemic arterial blood pressure can be detected in response to challenges with BK1 receptor agonists. There is, however, a predictable and reproducible response to BK2 agonists constituatively present. After stimulation with LPS BK1 receptor activity will develop over time such that profound responses to doses of BK1 agonists that were previously inconsequential in nature are observed after a 3-4 hour period. Responses to BK2 agonists are unchanged in these animals. At this point, one can test directly the ability to block both BK1 and BK2 mediated reductions in systemic blood pressure simultaneously with a heterodimeric antagonist.
(§2) FIGS. 8a, b and c comprise actual blood pressure traces from a series of experiments designed to illustrate the ability of a representative heterodimer (CP-0364) to block both BK1 - and BK2 - mediated hypotensive responses simultaneously.
(§3) The expected antagonist activity is based on the data summarized in Tables K and L. The in vivo experimental data reported are qualitative measurements of antagonist activity at three different doses (1, 3 and 10 μg kg^-1 min^-1) in rabbits given a sub-lethal dose of LPS (10 μg), 20 hours before initiation of the experiment.

[3] = biological target: T2, BK2 -receptor (Rattus norvegicus, UniProt P25023); assay: rat uterus (RU) in vitro, antagonism of BK; settings: against BK
T2 construct: guinea-pig ileum (GPI), rat uterus (RU) and rabbit jugular vein (RJV); from tissue; host or cells: rat uterus
T2 sequence (P25023 1-396): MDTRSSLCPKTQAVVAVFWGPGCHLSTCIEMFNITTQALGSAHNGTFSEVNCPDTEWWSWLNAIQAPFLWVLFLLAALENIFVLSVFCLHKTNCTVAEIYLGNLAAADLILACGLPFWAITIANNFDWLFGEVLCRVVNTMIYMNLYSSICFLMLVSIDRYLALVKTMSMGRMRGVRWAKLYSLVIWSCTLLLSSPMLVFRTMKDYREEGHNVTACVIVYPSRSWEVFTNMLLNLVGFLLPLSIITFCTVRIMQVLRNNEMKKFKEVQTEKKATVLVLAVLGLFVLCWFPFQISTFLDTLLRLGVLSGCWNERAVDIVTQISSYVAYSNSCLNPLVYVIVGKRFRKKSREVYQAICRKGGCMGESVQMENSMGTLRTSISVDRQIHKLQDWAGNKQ
Description: Thus, in vitro studies were performed on standard assay systems, namely, guinea-pig ileum (GPI), rat uterus (RU) and rabbit jugular vein (RJV). […] The potency of each compound was assessed as a pA2 value according to the method of Arunlakshana & Schild, Br. J. Pharmacol. Chemother., 14:48-58 (1959). The pA2 can be defined as the negative logarithm of the molar concentration of the antagonist in the presence of which the potency of the agonist is reduced two-fold, i.e., twice the amount of agonist is required to produce a given response in the presence of, than in the absence of, the antagonist. A high potency of antagonism is indicated by a high pA2 value. i.e., a low concentration of antagonist is effective.
The percentage recovery (% Rec) was also determined for compounds with respect to each assay.
With respect to duration of activity, it is noted that after exposure to the highest concentration of antagonist, each tissue was washed extensively and then assessed for recovery from the antagonist effect.
Potency in the rat uterus assay was assessed as described above and pA2 values determined.

[4] = biological target: T3, BK2 receptor (Oryctolagus cuniculus, UniProt Q28642); assay: blood pressure response to BK2 agonist in LPS-pretreated rabbits; format: in vivo, rabbit; design: key to observed antagonist activity BK2, 1 / observed antagonist activity BK2, 3 / observed antagonist activity BK2, 10: +: complete blockade of the blood pressure response to the appropriate agonist; ±: partial blockade; -: no observable effect at the dose indicated; settings: rabbits given LPS (10 μg) 20 hours before
T3 construct: from tissue; host or cells: whole animal (rabbit, LPS-pretreated), blood pressure response
T3 sequence (Q28642 1-367): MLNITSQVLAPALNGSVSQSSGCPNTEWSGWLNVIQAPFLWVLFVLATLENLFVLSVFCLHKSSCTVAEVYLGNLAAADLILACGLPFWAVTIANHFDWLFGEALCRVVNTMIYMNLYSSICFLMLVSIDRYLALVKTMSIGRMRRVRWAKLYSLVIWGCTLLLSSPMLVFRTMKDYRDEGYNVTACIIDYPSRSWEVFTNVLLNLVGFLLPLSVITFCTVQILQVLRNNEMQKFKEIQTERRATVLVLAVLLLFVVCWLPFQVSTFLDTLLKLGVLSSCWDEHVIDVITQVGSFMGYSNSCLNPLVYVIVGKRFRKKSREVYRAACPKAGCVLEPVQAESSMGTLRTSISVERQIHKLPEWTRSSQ
From the text: as §1, §2, §3

SMILES	BK1 rabbit aorta IC50 [1]	pA2 rat uterus (BK2) [3]	other results
N=C(N)NCCC[C@@H](N)C(=O)N[C@@H](CCCNC(=N)N)C(=O)N1CCC[C@H]1C(=O)N1C[C@H](O)C[C@H]1C(=O)NCC(=O)N[C@@H](Cc1cccs1)C(=O)N[C@@H](CO)C(=O)N1Cc2ccccc2C[C@@H]1C(=O)N1[C@H](C(=O)O)C[C@@H]2CCCC[C@@H]21 [CP-0345, D R--R--P--J--G--Thi--S--D Tic--Oic] (H-[dR]RP[Hyp]G[2Thi]S[dTic][Oic]-OH; N-terminus and C-terminus assumed)	7.1 ± 0.1	7.6 ± 0.4	observed antagonist activity BK1, 1 ([2]; 1 μg kg^-1 min^-1): -; observed antagonist activity BK1, 3 ([2]; 3 μg kg^-1 min^-1): +; observed antagonist activity BK1, 10 ([2]; 10 μg kg^-1 min^-1): +; observed antagonist activity BK2, 1 ([4]; 1 μg kg^-1 min^-1): -; observed antagonist activity BK2, 10 ([4]; 10 μg kg^-1 min^-1): +
CC(C)C[C@H](NC(=O)[C@@H](Cc1ccccc1)NC(=O)[C@H](CSC1CC(=O)N(CCCCCCN2C(=O)CC(SC[C@H](NC(=O)[C@H](Cc3ccccc3)NC(=O)CNC(=O)[C@@H]3C[C@@H](O)CN3C(=O)[C@@H]3CCCN3C(=O)[C@H](CCCNC(=N)N)NC(=O)[C@H](N)CCCNC(=N)N)C(=O)N[C@H](Cc3ccccc3)C(=O)N[C@@H](CC(C)C)C(=O)N[C@@H](CCCNC(=N)N)C(=O)O)C2=O)C1=O)NC(=O)[C@H](Cc1ccccc1)NC(=O)CNC(=O)[C@@H]1C[C@@H](O)CN1C(=O)[C@@H]1CCCN1C(=O)[C@H](CCCNC(=N)N)NC(=O)[C@H](N)CCCNC(=N)N)C(=O)O (stereo partly drawn) [CP-0273] (HELM PEPTIDE1{[dR].R.P.[Hyp].G.F.C.[dF].L.R}|PEPTIDE2{[dR].R.P.[Hyp].G.F.C.[dF].L}|CHEM1{[O=C1CC([*:1])C(=O)N1CCCCCCN1C(=O)CC([*:2])C1=O]}$PEPTIDE1,CHEM1,7:R3-1:R1|PEPTIDE2,CHEM1,7:R3-1:R2$$$V2.0; N-terminus and C-terminus assumed)			IC50 [1]: 2 µM; Kb ([3]; read-out: pA2 rat uterus (BK2) (converted)): 0.00631 µM
CC(C)C[C@H](NC(=O)[C@@H]1CCCN1C(=O)[C@H](CO)NC(=O)[C@H](Cc1ccccc1)NC(=O)CNC(=O)[C@@H]1C[C@@H](O)CN1C(=O)[C@@H]1CCCN1C(=O)[C@H](CS)NC(=O)[C@@H](N)CCCCN)C(=O)O [CP-0374, K--C--P--J--G--F--S--P--L] (HELM PEPTIDE1{K.C.P.[Hyp].G.F.S.P.L}$$$$V2.0; N-terminus and C-terminus assumed)	6.5 ± 0.3	no measurable activity	
CC(C)C[C@H](NC(=O)[C@@H](Cc1ccccc1)NC(=O)[C@H](CS)NC(=O)[C@H](Cc1ccccc1)NC(=O)CNC(=O)[C@@H]1C[C@@H](O)CN1C(=O)[C@@H]1CCCN1C(=O)[C@H](CCCNC(=N)N)NC(=O)[C@H](N)CCCNC(=N)N)C(=O)O [CP-0254, D R--R--P--J--G--F--C--D F--L] (HELM PEPTIDE1{[dR].R.P.[Hyp].G.F.C.[dF].L}$$$$V2.0; N-terminus and C-terminus assumed)	6.4 ± 0.1		
CC(C)C[C@H](NC(=O)[C@@H]1CCCN1C(=O)[C@H](CO)NC(=O)[C@H](Cc1ccccc1)NC(=O)CNC(=O)[C@@H]1C[C@@H](O)CN1C(=O)[C@@H]1CCCN1C(=O)[C@H](CCCCN)NC(=O)[C@H](N)CCCNC(=N)N)C(=O)O [CP-0388, D R--K--P--J--G--F--S--P--L] (HELM PEPTIDE1{[dR].K.P.[Hyp].G.F.S.P.L}$$$$V2.0; N-terminus and C-terminus assumed)	6.5 ± 0.1		
CC(C)C[C@H](NC(=O)[C@@H]1CCCN1C(=O)[C@H](CO)NC(=O)[C@H](Cc1ccccc1)NC(=O)CNC(=O)[C@@H]1C[C@@H](O)CN1C(=O)[C@@H]1CCCN1C(=O)[C@H](CCCCNC(=O)CCCCCN1C(=O)CC(SC[C@H](NC(=O)[C@H](Cc2ccccc2)NC(=O)CNC(=O)[C@@H]2C[C@@H](O)CN2C(=O)[C@@H]2CCCN2C(=O)[C@H](CCCNC(=N)N)NC(=O)[C@H](N)CCCNC(=N)N)C(=O)N[C@H](Cc2ccccc2)C(=O)N[C@@H](CC(C)C)C(=O)N[C@@H](CCCNC(=N)N)C(=O)O)C1=O)NC(=O)[C@H](N)CCCNC(=N)N)C(=O)O (stereo partly drawn) [CP-0389] (HELM PEPTIDE1{[dR].R.P.[Hyp].G.F.C.[dF].L.R}|PEPTIDE2{[dR].K.P.[Hyp].G.F.S.P.L}|CHEM1{[O=C1CC([*:1])C(=O)N1CCCCCC(=O)[*:2]]}$PEPTIDE1,CHEM1,7:R3-1:R1|PEPTIDE2,CHEM1,2:R3-1:R2$$$V2.0; N-terminus and C-terminus assumed; bridges inferred)	6.5 ± 0.1	7.4 ± 0.1	
